Earlier results on two compounds are cited in patent US5840756A, “Pharmaceutical composition of L-DOPA ester” (priority 1996, dated 1998).

For data set [1] the following is noted: oral administration; L-DOPA ethyl ester vs L-DOPA.
Assay in data set [2]: not given
The source holds these as a separate data set.

The conditions of data set [3]: oral or parenteral route.

With `N[C@@H](Cc1ccc(O)c(O)c1)C(=O)O` [levodopa], the Water solubility entry is listed as “low water solubility”. For the same compound, the “Time courses of action” value in data set [1] is reported as “same time courses of action”. Also, the “Relief from the `off` state” value in data set [2] (direct instillation of a slurry through a duodenal tube) was “rapid relief”. The “Effect of oral dosing with a dilute aqueous solution” value in data set [2] (oral, dilute aqueous solution) is listed as “appeared to be effective”. Besides, the “Treated patients in whom disabling motor fluctuations appear” value in data set [2] (within five years after initiation, in combination with carbidopa or benserazide) is recorded as “about 50%”.
For `CCOC(=O)[C@@H](N)Cc1ccc(O)c(O)c1` [L-DOPA ethyl ester], the “Time courses of action” value in data set [1] was “same time courses of action”. Moreover, the “Function as a prodrug of levodopa” value in data set [3] is “function as a prodrug of levodopa”.
